Laboratory results from the supplement of paper PMC4932681.

Experiments:
ZR-75-1 Tam1 [1] = test: drug sensitivity score (DSS) (DSS (dimensionless)); higher = more sensitive; extreme values may be limits of the assay; conditions: 4-OH-tamoxifen in medium 1 µM; 72 h
Procedure, shortened: (§1)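 CellTiter-Glo viability was the readout, taken on a PHERAstar and normalised to vehicle-only and positive controls. It was measured after breast cancer cell lines and their resistant derivatives spent 72 h at 37 °C in 384-well plates containing library drugs at five concentrations spanning a 10 000-fold range, with 1 μM of the selecting drug in the medium of resistant lines. From logistic dose–response fits in the Breeze pipeline came drug sensitivity score, relative IC50 (curve midpoint) and top-dose inhibition.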

ZR-75-1 Tam2 [2] = test: as above; conditions: 4-OH-tamoxifen in medium 1 µM; 72 h
Procedure, shortened: as §1

BT-474 [3] = test: as above; conditions: 72 h
Procedure, shortened: as §1

T-47D Tam2 [4] = test: as above; conditions: 4-OH-tamoxifen in medium 1 µM; 72 h
Procedure, shortened: as §1

T-47D Tam1 [5] = test: as above; conditions: 4-OH-tamoxifen in medium 1 µM; 72 h
Procedure, shortened: as §1

MCF-7 Tam1 [6] = test: as above; conditions: 4-OH-tamoxifen in medium 1 µM; 72 h
Procedure, shortened: as §1

MCF-7 [7] = test: as above; conditions: 72 h
Procedure, shortened: as §1

T-47D [8] = test: as above; conditions: 72 h
Procedure, shortened: as §1

BT-474 Tam2 [9] = test: as above; conditions: 4-OH-tamoxifen in medium 1 µM; 72 h
Procedure, shortened: as §1

BT-474 Tam1 [10] = test: as above; conditions: 4-OH-tamoxifen in medium 1 µM; 72 h
Procedure, shortened: as §1

ZR-75-1 [11] = test: as above; conditions: 72 h
Procedure, shortened: as §1

ZR-75-1 Tam1 [12] = test: relative IC50 (midpoint of fitted logistic curve, plateau may be below 50% inhibition; CellTiter-Glo viability); higher = less potent; conditions: 4-OH-tamoxifen in medium 1 µM; 72 h
Procedure, shortened: as §1

ZR-75-1 Tam2 [13] = test: as above; conditions: 4-OH-tamoxifen in medium 1 µM; 72 h
Procedure, shortened: as §1

BT-474 [14] = test: as above; conditions: 72 h
Procedure, shortened: as §1

T-47D Tam2 [15] = test: as above; conditions: 4-OH-tamoxifen in medium 1 µM; 72 h
Procedure, shortened: as §1

T-47D Tam1 [16] = test: as above; conditions: 4-OH-tamoxifen in medium 1 µM; 72 h
Procedure, shortened: as §1

MCF-7 Tam1 [17] = test: as above; conditions: 4-OH-tamoxifen in medium 1 µM; 72 h
Procedure, shortened: as §1

MCF-7 [18] = test: as above; conditions: 72 h
Procedure, shortened: as §1

T-47D [19] = test: as above; conditions: 72 h
Procedure, shortened: as §1

BT-474 Tam2 [20] = test: as above; conditions: 4-OH-tamoxifen in medium 1 µM; 72 h
Procedure, shortened: as §1

BT-474 Tam1 [21] = test: as above; conditions: 4-OH-tamoxifen in medium 1 µM; 72 h
Procedure, shortened: as §1

ZR-75-1 [22] = test: as above; conditions: 72 h
Procedure, shortened: as §1

Row | SMILES | drug sensitivity score (ZR-75-1 Tam1 [1]) | drug sensitivity score (ZR-75-1 Tam2 [2]) | drug sensitivity score (BT-474 [3]; 4-OH-tamoxifen in medium 0 µM) | drug sensitivity score (BT-474 [3]; 4-OH-tamoxifen in medium 1 µM) | drug sensitivity score (T-47D Tam2 [4]) | drug sensitivity score (T-47D Tam1 [5]) | drug sensitivity score (MCF-7 Tam1 [6]) | drug sensitivity score (MCF-7 [7]; 4-OH-tamoxifen in medium 0 µM) | drug sensitivity score (MCF-7 [7]; 4-OH-tamoxifen in medium 1 µM) | drug sensitivity score (T-47D [8]; 4-OH-tamoxifen in medium 0 µM) | drug sensitivity score (T-47D [8]; 4-OH-tamoxifen in medium 1 µM) | drug sensitivity score (BT-474 Tam2 [9]) | drug sensitivity score (BT-474 Tam1 [10]) | drug sensitivity score (ZR-75-1 [11]; 4-OH-tamoxifen in medium 0 µM) | drug sensitivity score (ZR-75-1 [11]; 4-OH-tamoxifen in medium 1 µM) | relative IC50 (ZR-75-1 Tam1 [12]) | relative IC50 (ZR-75-1 Tam2 [13]) | relative IC50 (BT-474 [14]; 4-OH-tamoxifen in medium 0 µM) | relative IC50 (BT-474 [14]; 4-OH-tamoxifen in medium 1 µM) | relative IC50 (T-47D Tam2 [15]) | relative IC50 (T-47D Tam1 [16]) | relative IC50 (MCF-7 Tam1 [17]) | relative IC50 (MCF-7 [18]; 4-OH-tamoxifen in medium 0 µM) | relative IC50 (MCF-7 [18]; 4-OH-tamoxifen in medium 1 µM) | relative IC50 (T-47D [19]; 4-OH-tamoxifen in medium 0 µM) | relative IC50 (T-47D [19]; 4-OH-tamoxifen in medium 1 µM) | relative IC50 (BT-474 Tam2 [20]) | relative IC50 (BT-474 Tam1 [21]) | relative IC50 (ZR-75-1 [22]; 4-OH-tamoxifen in medium 0 µM) | relative IC50 (ZR-75-1 [22]; 4-OH-tamoxifen in medium 1 µM)
1 | COc1cccc2c1C(=O)c1c(O)c3c(c(O)c1C2=O)C[C@@](O)(C(C)=O)C[C@@H]3O[C@H]1C[C@H](N)[C@H](O)[C@H](C)O1 [Daunorubicin] | 5.81 | 6.6 | 2.33 | 4.51 | 4.19 | 6.95 | 1.34 | 6.15 | 7.3 | 7.41 | 3.69 | 1.15 | 3.18 | 6.15 | 5.38 | 164 nM | 150 nM | 385 nM | 375 nM | 282 nM | 133 nM | 341 nM | 208 nM | 189 nM | 134 nM | 350 nM | 393 nM | 398 nM | 138 nM | 124 nM
2 | CN1CC[C@H](c2c(O)cc(O)c3c(=O)cc(-c4ccccc4Cl)oc23)[C@H](O)C1 [Alvocidib (Flavopiridol)] | 7.64 | 10.1 | 1.69 | 14.1 | 7.73 | 16.8 | 4.64 | 13.6 | 9.86 | 7.14 | 0 | 16.9 | 19.8 | 10.4 | 9.96 | 477 nM | 355 nM |  | 388 nM | 184 nM | 174 nM | 316 nM | 187 nM | 515 nM | 408 nM | > 10000 nM | 363 nM | 217 nM | 251 nM | 246 nM
3 | O=P(O)(NCCCl)NCCCl [Ifosfamide mustard] | 0 | 0 | 0 | 0 | 0 | 0 | 0 | 0 | 0 | 0 | 0 | 0 | 0 | 0 | 0 | > 10000 nM | > 10000 nM | > 10000 nM | > 10000 nM | > 10000 nM | > 10000 nM | > 10000 nM | > 10000 nM | > 10000 nM | > 10000 nM | > 10000 nM | > 10000 nM | > 10000 nM | > 10000 nM | > 10000 nM
4 | Cc1cnc(NC(=O)Nc2cc(Br)c(C)cc2OC[C@@H]2CNCCO2)cn1 | 0 | 0 | 0 | 0 | 0 | 0 | 0 | 2.37 | 0.181 | 0 | 0 | 0 | 0 | 0 | 0 | > 1000 nM | > 1000 nM | > 1000 nM | > 1000 nM | > 1000 nM | > 1000 nM | > 1000 nM |  |  | > 1000 nM | > 1000 nM | > 1000 nM | > 1000 nM | > 1000 nM | > 1000 nM
5 | COc1cc2c(Oc3ccc4[nH]c(C)cc4c3F)ncnc2cc1OCCCN1CCCC1 [Cediranib (AZD2171, Recentin)] | 0 | 0 | 0 | 2.04 | 0 | 0 | 0 | 0.0072 | 0 | 0 | 0.609 | 0 | 0.271 | 0 | 0 | > 1000 nM | > 1000 nM | > 1000 nM | 304 nM | > 1000 nM | > 1000 nM | > 1000 nM |  | > 1000 nM | > 1000 nM |  | > 1000 nM |  | > 1000 nM | > 1000 nM
6 | C[C@]12C=CC(=O)C=C1CC[C@@H]1[C@@H]2[C@@H](O)C[C@@]2(C)[C@H]1CC[C@]2(O)C(=O)CO [Prednisolone] | 0 | 0 | 0 | 0 | 0 | 0 | 0 | 0.324 | 0.407 | 0 | 0 | 0 | 0 | 0 | 0 | > 10000 nM | > 10000 nM | > 10000 nM | > 10000 nM | > 10000 nM | > 10000 nM | > 10000 nM |  |  | > 10000 nM | > 10000 nM | > 10000 nM | > 10000 nM | > 10000 nM | > 10000 nM
7 | Cn1nnc2c(C(N)=O)ncn2c1=O [Temozolomide] | 0 | 0 | 0 | 0 | 0 | 0 | 0 | 0 | 0 | 0 | 0 | 0 | 0.313 | 0.0165 | 0 | > 10000 nM | > 10000 nM | > 10000 nM | > 10000 nM | > 10000 nM | > 10000 nM | > 10000 nM | > 10000 nM | > 10000 nM | > 10000 nM | > 10000 nM | > 10000 nM |  |  | > 10000 nM
